Measurements: PMC10482914, “Molecular architecture and electron transfer pathway of the Stn family transhydrogenase” (Nature Communications, 2023)
Blank lines part the entries; values can stand above or below the compound they belong to.

Experiments:
[1] = biological target: T1, StnABC complex (FMN / NAD(H) site in StnB) (Sporomusa ovata, UniProt A0A0U1KYM9); assay: spectrophotometric, […] nm; format: biochemical; settings: 0.25 mM NADH, 0.5 mM NADP+, 30 uM reduced ferredoxin; pH 8, 50 C
T1 construct: gene SpAn4DRAFT_2936; same complex as P1, other site; native purification from S. ovata, untagged; tetramer of StnABC heterotrimers; mildly BS3-crosslinked for cryo-EM; with Electron-bifurcating transhydrogenase subunit StnA (HydC / NuoE-like, thioredoxin-like [2Fe-2S] subunit)
T1 sequence (A0A0U1KYM9 1-584): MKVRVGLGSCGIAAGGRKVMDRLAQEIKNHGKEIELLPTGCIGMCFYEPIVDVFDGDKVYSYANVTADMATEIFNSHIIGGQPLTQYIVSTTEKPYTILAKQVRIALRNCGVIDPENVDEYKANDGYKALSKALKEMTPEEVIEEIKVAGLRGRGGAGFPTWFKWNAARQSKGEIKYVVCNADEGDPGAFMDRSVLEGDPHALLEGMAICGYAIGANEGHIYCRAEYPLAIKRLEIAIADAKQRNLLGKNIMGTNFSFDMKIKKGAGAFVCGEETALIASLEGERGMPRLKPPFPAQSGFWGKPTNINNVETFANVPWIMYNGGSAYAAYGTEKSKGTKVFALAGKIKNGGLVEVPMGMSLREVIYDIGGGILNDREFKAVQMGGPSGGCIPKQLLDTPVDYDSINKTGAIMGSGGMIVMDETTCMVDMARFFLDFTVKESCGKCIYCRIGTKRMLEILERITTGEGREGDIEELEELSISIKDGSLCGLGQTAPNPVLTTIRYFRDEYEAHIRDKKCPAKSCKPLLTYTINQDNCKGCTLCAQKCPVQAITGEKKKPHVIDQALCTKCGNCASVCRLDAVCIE
T1 sequence (A0A0U1KYW8 1-178 partner): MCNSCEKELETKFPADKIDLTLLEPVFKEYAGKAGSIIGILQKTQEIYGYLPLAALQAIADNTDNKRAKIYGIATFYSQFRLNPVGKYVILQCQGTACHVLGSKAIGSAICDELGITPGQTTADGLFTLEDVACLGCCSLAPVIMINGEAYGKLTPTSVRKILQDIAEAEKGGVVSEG
T1 sequence (A0A0U1KYI6 1-1172 partner): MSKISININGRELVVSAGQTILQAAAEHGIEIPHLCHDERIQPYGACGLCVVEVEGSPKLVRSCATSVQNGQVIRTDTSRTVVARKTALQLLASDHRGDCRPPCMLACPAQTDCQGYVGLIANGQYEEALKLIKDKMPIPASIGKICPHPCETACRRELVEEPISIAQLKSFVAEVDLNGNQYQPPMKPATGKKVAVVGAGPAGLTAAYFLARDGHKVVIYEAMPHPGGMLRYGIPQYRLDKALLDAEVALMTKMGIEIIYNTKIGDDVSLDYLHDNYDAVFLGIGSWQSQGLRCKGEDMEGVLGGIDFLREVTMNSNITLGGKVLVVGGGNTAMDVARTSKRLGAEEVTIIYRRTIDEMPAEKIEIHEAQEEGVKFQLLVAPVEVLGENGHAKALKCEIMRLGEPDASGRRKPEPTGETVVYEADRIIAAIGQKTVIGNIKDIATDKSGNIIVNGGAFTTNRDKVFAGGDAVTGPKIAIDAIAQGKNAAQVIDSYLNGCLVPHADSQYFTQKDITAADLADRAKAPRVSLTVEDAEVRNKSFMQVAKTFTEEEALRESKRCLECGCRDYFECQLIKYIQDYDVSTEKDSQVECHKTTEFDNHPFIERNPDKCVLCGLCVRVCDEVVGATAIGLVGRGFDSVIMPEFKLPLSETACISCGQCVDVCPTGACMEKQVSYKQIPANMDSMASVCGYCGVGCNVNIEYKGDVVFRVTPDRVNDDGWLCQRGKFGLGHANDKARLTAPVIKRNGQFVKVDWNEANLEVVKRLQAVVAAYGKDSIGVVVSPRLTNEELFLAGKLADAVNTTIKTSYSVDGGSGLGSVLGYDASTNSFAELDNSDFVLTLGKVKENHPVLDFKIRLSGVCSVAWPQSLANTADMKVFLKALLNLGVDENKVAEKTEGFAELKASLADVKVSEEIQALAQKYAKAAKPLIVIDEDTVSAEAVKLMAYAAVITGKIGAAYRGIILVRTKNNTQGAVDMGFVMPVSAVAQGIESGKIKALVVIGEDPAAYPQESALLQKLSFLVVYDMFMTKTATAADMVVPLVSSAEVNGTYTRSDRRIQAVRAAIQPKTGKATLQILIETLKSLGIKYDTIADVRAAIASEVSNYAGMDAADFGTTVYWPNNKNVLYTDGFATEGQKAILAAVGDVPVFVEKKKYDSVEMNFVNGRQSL

[2] = biological target: T2, StnABC complex (FAD / NADP(H) site in StnC) (Sporomusa ovata, UniProt A0A0U1KYI6); assay: spectrophotometric, […] nm; format: biochemical; settings: 0.5 mM NADP+, 0.25 mM NADH, 30 uM reduced ferredoxin; pH 8, 50 C
T2 construct: gene SpAn4DRAFT_2937; native purification from S. ovata cytoplasm, untagged; tetramer of StnABC heterotrimers (D2); StnC 1172 amino acids; mildly BS3-crosslinked for cryo-EM; with Electron-bifurcating transhydrogenase subunit StnB (HydB / NuoF-like subunit); Electron-bifurcating transhydrogenase subunit StnA (HydC / NuoE-like, thioredoxin-like [2Fe-2S] subunit)
T2 sequence (A0A0U1KYI6 1-1172): T1 sequence (A0A0U1KYI6 1-1172 partner)
T2 sequence (A0A0U1KYM9 1-584 partner): T1 sequence (A0A0U1KYM9 1-584)
T2 sequence (A0A0U1KYW8 1-178 partner): T1 sequence (A0A0U1KYW8 1-178 partner)

[3] = biological target: StnC subunit of the StnABC transhydrogenase complex from Sporomusa ovata (Sporomusa ovata); assay: cryo-EM structure; single-particle cryo-EM of the natively purified StnABC complex, mildly cross-linked, anoxic; state S1 without added FMN and substrates (3.2 Å) and state S2 with 10 µM FMN, 500 µM NAD+, 30 µM Fd, 500 µM NADPH (3.0 Å); D2 symmetry

Compound: NC(=O)C1=CN([C@@H]2O[C@H](COP(=O)(O)OP(=O)(O)OC[C@H]3O[C@@H](n4cnc5c(N)ncnc54)[C@H](O)[C@@H]3O)[C@@H](O)[C@H]2O)C=CC1 [NADH]
spectrophotometric, 340 nm [1]: catalysed the Fdred and NADH-dependent reduction of NADP^+

Compound: NC(=O)c1ccc[n+]([C@@H]2O[C@H](COP(=O)(O)OP(=O)(O)OC[C@H]3O[C@@H](n4cnc5c(N)ncnc54)[C@H](OP(=O)(O)O)[C@@H]3O)[C@@H](O)[C@H]2O)c1 [NADP^+]
spectrophotometric, 340 nm [2]: catalysed the Fdred and NADH-dependent reduction of NADP^+

stoichiometry N [3]: 4
Compound: StnC subunit of the StnABC transhydrogenase complex from Sporomusa ovata (natural protein)
